Like-named read-outs stand apart in the source and are kept apart here.
Key:
L929 mouse fibroblast = assay: CYT vt: cytotoxicity viability assay; format: cell-based
P. falciparum 3D7 strain = assay: MAL vt: Malaria viability assay; format: cell-based; conditions: Plasmodium falciparum
T. brucei strain S427 = assay: HAT vt: Human African trypanosoma viability assay; format: cell-based; conditions: 72 hour, resazurin, read-out: measured activity (IC50), HAT vt, TbbS427
[1] = system: L. donovani strain MHOM/SD/00/LS; assay: LEI axe: Leishmania axenic amastigote assay; format: cell-based
Haemonchus contortus = assay: microbe, parasite or virus in culture; format: cell-based; conditions: 96 hour, read-out: measured activity (EC50), Endoparasites_DR, H. contortus
Brugia malayi = assay: Endoparasites_DR: endoparasites dose response assay, B. malayi; format: cell-based
Dirofilaria immitis = assay: Endoparasites_DR: endoparasites dose response assay, D. immitis; format: cell-based; conditions: 72 h, read-out: measured activity (EC50), Endoparasites_DR, D. immitis
[2] = system: parasite species and L929 mouse fibroblast; assay: In vitro screening of compounds against parasite panel and mammalian cell line (overall statements); format: cell-based
human cancer cell lines = system: human cancer cell lines; design: method as in PMID 23526814; conditions: 8b and 10c therein; cited from earlier work
[3] = Mus musculus, L929, read-out: measured activity (IC50), CYT vt, L929
[4] = 3D7, 0.25 h, timepoint 15 minute, read-out: measured activity (IC50), MAL vt, PfDd2
[5] = 72 hour, axenic amastigotes, resazurin, read-out: measured activity (IC50), LEI axe, Ld1S
[6] = Mus musculus, Table 2, column H. sapiens, same values as L929 in Table 1, read-out: EC50(IC50)
[7] = 120 h, 5 day, read-out: measured activity (EC50), Endoparasites_DR, B. malayi
[8] = Table 2, column B. malayi, read-out: EC50(IC50)

Structure (SMILES)	IC50 (L929 mouse fibroblast; [3]) [nM]	IC50 (P. falciparum 3D7 strain; [4]) [nM]	IC50 (T. brucei strain S427) [nM]	IC50 [1, 5] [nM]	further results
O=C(CCCCCSc1nc2ccccc2c(=O)[nH]1)NO [MC1862]	7120	1150	–	–	–
COc1cc(-c2ccccc2)nc(SCc2ccc(/C=C/C(=O)NO)cc2)n1 [MC2126]	1760	1920	441	> 5000	–
CCCCCCCC(=O)SCC/C=C/[C@@H]1CC(=O)NCc2nc(cs2)C2=N[C@@](C)(CS2)C(=O)N[C@@H](C(C)C)C(=O)O1 [SD-L-148, Largazole, reference compound]	101	–	–	–	EC50 (Haemonchus contortus): 7100 nM
O=C(CCCCSc1nc(-c2ccc(-c3ccccc3)cc2)cc(=O)[nH]1)NO [MC1742]	1510	< 10	–	–	–
O=C(CCCCCCC(=O)Nc1ccccc1)NO [GRM1, SAHA, reference compound]	–	152	–	–	–
CN1CCc2c(c3ccccc3n2Cc2ccc(C(=O)NO)cc2)C1 [GRM2, Tubastatin, reference compound]	6220	–	2700	> 5000	–
Cn1cc(/C=C/C(=O)c2cccc(NC(=O)OC(C)(C)C)c2)cc1C(=O)NO [MC2776]	–	–	–	–	IC50 (L929 mouse fibroblast; [6]): > 10000 nM; EC50 (Brugia malayi; [7]): 4390 nM; EC50 (Brugia malayi; [8]): 4390 nM; EC50 (Dirofilaria immitis): > 10000 nM; efficacy in the protists ([2]; T. brucei, L. donovani, P. falciparum): did not show any efficacy; IC50 (human cancer cell lines): > 10000 nM
CC(C)(C)OC(=O)Nc1cccc(C(=O)/C=C/c2ccc(/C=C/C(=O)NO)cc2)c1 [MC2780]	–	56	623	473	IC50 (L929 mouse fibroblast; [6]): 4810 nM; EC50 (Brugia malayi; [7]): 2530 nM; EC50 (Brugia malayi; [8]): 2530 nM; EC50 (Dirofilaria immitis): 8140 nM; IC50 ([1]; Table 2, column L. donovani, read-out: EC50(IC50)): 470 nM; IC50 (P. falciparum 3D7 strain; 3D7, Table 2, column P. falciparum, read-out: EC50(IC50)): 60 nM; activity across parasites [2]: pan-parasite potential; IC50 on human cancer cell lines (human cancer cell lines): more potent IC50
O=C(/C=C/c1ccc(NC(=O)C(Cc2ccccc2)c2ccccc2)cn1)NO (stereo not drawn) [MC2625]	311	22	1180	> 5000	–
CC(C)(C)OC(=O)Nc1cccc(-c2cc(C(=O)NCCCCCCC(=O)NO)no2)c1 [MC2727a]	2350	960	–	–	–
CC(C)(C)OC(=O)Nc1ccc(-c2cc(C(=O)NCCCCCCC(=O)NO)no2)cc1 [MC2726]	–	189	–	–	IC50 (L929 mouse fibroblast; L929 mouse fibroblast, read-out: measured activity (IC50), CYT vt, L929): 1920 nM
CN(C)Cc1ccc(S(=O)(=O)n2ccc3cc(/C=C/C(=O)NO)ccc32)cc1 [MC3031]	555	–	267	> 5000	–
